From patent publication US6087336A, “Peptide derivatives useful in treating autoimmune diseases” (Zeneca Limited, priority 1996, dated 2000)

Key:
[1] = assay type: physicochemical
Protocol: Typical procedures for measuring the level of degradation of a peptide of the present invention are as follows:
Prenaration of extruded polymer depot formulation of peptide
About 20 mg of peptide is accurately weighed and sufficient polymer (50/50% molar poly(D,L-lactic acid/glycolic acid) copolymer of approximate weight average molecular weight 20kD and approximate polydispersity of 1.7 as determined by size exclusion chromatography relative to polystyrene standards) added to produce an approximate 20% w/w mixture. This is dissolved in […] glacial acetic acid to produce an approximate 10% w/v solution. The solution is freeze dried and the resulting freeze dried product is stored under vacii, prior to use.
About 100 mg of freeze dried material is loaded into the barrel of a small laboratory extruder and the plunger pushed down to consolidate the sample. The extruder is heated to between 90 and 95° C. and held at this temperature for 10 minutes before the freeze dried material is extruded under presure to give a cylindrical extrudate of approximately 1 mm in diameter.
Analysis of peptide content of extruded polymer depot formulation of peptide
Two approximate 5 mm lengths of extruded polymer depot containing peptide are accurately weogjed amd eacj dosspved 1 ml of anhydride-free glacial acetic acid in separate 25 ml bolumertic flasks. After about 1.5 hours the volume of each is made up to 25 ml with distilled water, causing the polymer to precipitate. The solids are filtered off using a 0.5 μm Millex PTFE filter and the solutions, A, collected. […]
Each standard is filtered through a 5 μm Millex PTFE filter and an aliquot of filtrate, together with aliquots of the solutions A, analysed by HPLC using duplicate sample injections. The peptide content of the extruded polymer depot formulation of peptide is calculated from the concentration of peptide in solutions A, which is determined by comparing the area of the peptide peak in solutions A with the area of the peptide peak from the standard solutions.

HLA-DR2 = assay: Variant to Test A: peptide selectivity binding assay, HLA-DR2; parameters: species or system Human
Protocol: (§1) As a variant to test A, the ability of a peptide of the invention to bind to one or more HLA-DR molecules was assessed as follows:
(§2) (i) Purification of HLA-DR Types from Cell Lines
(§3) The method used was a modification of that described by Gorga et al, 1987, J.Biol.Chem. 262, 16087-16094. Human HLA-DR antigens were purified from various cell lines by immunoaffinity chromatography. […] Protein content was determined by a Biorad protein assay and purity by SDS-PAGE electrophoresis. […]
(§4) 200 nM biotin-FHA307-320 in phosphate buffered saline (PBS) was incubated with either purified HLA-DR1, DR2, DR4Dw4, DR4Dw13 or DR4Dw14, (2-20μg/ml) in V-well microtitre plates (Nunc) with or without inhibitor peptides in assay buffer (PBS, 0.01% NP40 (Sigma.)) For DR3 inhibition, 400 nM Biotin-Ahx-(D)Ala-Ala-Ala-Che-lle-Ala-Ala-Ala-Thr-Leu-Lys-Ala-Ala-(D)Ala-OH was incubated with purified DR3 (20 μg/ml.), and incubated as above. After 48 hours, the incubates were treated, and absorbance readings taken as described in Test A. The inhibitory activity of peptides, expressed as IC50 values, was calculated using Microcal Origin software on a PC.

HLA-DR4Dw4 = target: T1, HLA-DR4Dw4 (Homo sapiens, UniProt P01903+P01911, A100K/A169T/F76Y/I96L/K127E/L162R/M171V/N62H/P40V/Q125Y/R42H/S133A/S149N/S66Y/V115G/V209L/W38E); assay: Variant to Test A: peptide selectivity binding assay, HLA-DR4Dw4
T1 construct: a cDNA encoding the β chain is cloned into the transfer vector pAcUW1; made in house; host or cells: Sf21 insect cells, double-recombinant baculovirus
Protocol: as §1, §2, §3, §4

HLA-DR4Dw14 = assay: Variant to Test A: peptide selectivity binding assay, HLA-DR4Dw14; parameters: species or system Human
Protocol: as §1, §2, §3, §4

[2] = assay type: physicochemical; remark: listed apart in the source
Protocol: Degradation of Dettide on in vitro release from an extruded polymer depot
A solution of McIlvaine's citric acid-phosphate buffer solution at pH 7.6 containing 0.02% sodium azide, is filtered through a 0.22 μfilter and stored at 4° C. Approximately 10 mg of extruded polymer depot containing peptide is placed in two small vials and 2 ml of the buffer solution added. The vials are then capped and stored in a water bath at 37° C. for a month. At suitable time points over a month, three 0.6ml aliquots of release medium are removed from each vial and either analysed by HPLC or stored frozen in an HPLC vial at -18° C. prior to analysis by HPLC. 1.8 ml of the buffer solution is added to each vial containing the depot to replace the release medium that has been removed at each time point.
The average amount of intact peptide in the release medium at each time point is determined by HPLC using duplicate sample injections by comparing the area of the peptide peak in the release media with the area of the peptide peak from standard buffer solutions of peptide at known concentrations. The approximate average amount of peptide degradation products in the release media at each time point is determined by HPLC by comparing the area of additional new peaks in the release media with the area of the peptide peak from standard buffer solutions of peptide at known concentrations and assuming the extinction coefficient has not changed. The average cumulative in vitro release profile of intact peptide and total peptide (intact peptide and peptide degradation products) is determined from the amounts of intact peptide and peptide degradation products in the release medium at each time point. Preferred peptides of the present invention show minimal degradation on in vitro release and thus show total peptide degradation products of less than 10% and preferably less than 5% of total peptide after a month of in vitro release into Mcllvaine's buffer solution at pH 7.6 at 37° C.

Row | Substance | loss due to degradation on extrusion [1] | binding to HLA-DR2 (HLA-DR2) | binding to HLA-DR4Dw4 (HLA-DR4Dw4) | binding to HLA-DR4Dw14 (HLA-DR4Dw14) | degradation on release from depot formulation [2]
1 | Phv-Ala-Arg-Ala-IIb-Ala-Arg-Ala-Papa-NH2 [Example 23] | minimal loss due to degradation on extrusion | bind significantly | bind significantly | bind significantly | minimal degradation on release
2 | Phv-Arg-Ala-Ala-Ala-Val-IIb-Ala-Pip-NH2 [Example 5] | minimal loss due to degradation on extrusion | – | – | – | minimal degradation on release
3 | Phv-Gap(Me)4 -Ala-Ala-Ala-Thr-IIb-Ala-Papa-NH2 [Example 16] | minimal loss due to degradation on extrusion | – | – | – | minimal degradation on release
